For assay [1], the target named is T1, Orexin type 1 (OX1R) receptor (Homo sapiens, UniProt O43613).
T1 construct: expressed in transfected cells; host or cells: CHO cells (G418 selection)
T1 sequence (O43613 1-425): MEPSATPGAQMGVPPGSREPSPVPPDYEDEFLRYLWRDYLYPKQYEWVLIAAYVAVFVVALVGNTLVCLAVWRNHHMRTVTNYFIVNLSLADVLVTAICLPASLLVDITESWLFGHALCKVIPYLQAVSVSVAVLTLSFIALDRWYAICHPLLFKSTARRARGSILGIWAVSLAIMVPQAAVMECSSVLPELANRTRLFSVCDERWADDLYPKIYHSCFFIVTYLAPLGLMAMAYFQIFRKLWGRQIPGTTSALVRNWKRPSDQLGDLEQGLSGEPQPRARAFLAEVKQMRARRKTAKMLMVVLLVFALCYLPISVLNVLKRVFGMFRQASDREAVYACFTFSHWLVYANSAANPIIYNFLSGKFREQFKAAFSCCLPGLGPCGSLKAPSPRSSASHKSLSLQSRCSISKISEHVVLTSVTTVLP
Description: In vitro orexin antagonism assay: intracellular calcium measurement (FLIPR), orexin-A 3 nM as agonist. The following applies: for IC50: first value of IC50/Kb cell; for inhibition at 1 µM: read-out: OX1R, % Inh. @ 1 uM; for Kb: second value of IC50/Kb cell. Type of assay: cell-based. Summed up: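 CHO cells expressing the human orexin receptor were loaded with 3 μM fluo-4 AM plus 5 mM probenecid, then exposed to antagonist for 120 min before 3 nM orexin-A (final) was added on a FLIPR.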

Assay [2] has as its target T2, human orexin-2 receptor (OX2R) (Homo sapiens, UniProt O43614).
T2 construct: expressed in transfected cells; host or cells: CHO cells (G418 selection)
T2 sequence (O43614 1-444): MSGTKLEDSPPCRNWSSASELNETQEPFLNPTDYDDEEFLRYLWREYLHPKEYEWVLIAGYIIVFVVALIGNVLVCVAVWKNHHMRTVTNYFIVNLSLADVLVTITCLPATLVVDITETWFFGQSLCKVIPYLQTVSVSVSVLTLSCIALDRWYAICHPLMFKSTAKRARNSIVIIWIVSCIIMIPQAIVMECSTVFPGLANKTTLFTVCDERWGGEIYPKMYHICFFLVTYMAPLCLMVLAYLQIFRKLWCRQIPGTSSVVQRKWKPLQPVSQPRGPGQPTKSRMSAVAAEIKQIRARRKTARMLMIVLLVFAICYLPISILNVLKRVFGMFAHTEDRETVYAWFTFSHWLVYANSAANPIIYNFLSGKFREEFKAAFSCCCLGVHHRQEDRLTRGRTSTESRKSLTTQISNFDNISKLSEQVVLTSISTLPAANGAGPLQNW
Described as above. The class given is cell-based. The following applies: for IC50: first value of IC50/Kb cell; for inhibition at 1 µM: read-out: OX2R, % Inh. @ 1 uM; for Kb: second value of IC50/Kb cell. Summed up:
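Fluorescence peak on 3 nM orexin-A challenge, read by FLIPR and compared with vehicle, yields IC50 (geometric mean when repeated; may be normalized to an on-plate reference). Antagonists were added 120 min beforehand to fluo-4-loaded recombinant CHO cells expressing human OX1R or OX2R.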

In assay [3] the target is T3, human k-opioid receptor (kOR) (Homo sapiens, UniProt P41145).
T3 construct: expressed in transfected cells; host or cells: RBL cells (membrane homogenates)
Description: Human k-opioid (KOP) receptor (agonist radioligand [3H]U-69593) binding assay, transfected RBL cell membranes. The following applies: read-out: KOR % Inh. @ 1 uM. The protocol: Human k-Opioid (KOP) Receptor (Agonist Radioligand) Binding Assay
Purpose: Evaluation of the affinity of compounds for the human k-opioid receptor in transfected RBL cells determined in a radioligand binding assay.
Experimental protocol: Cell membrane homogenates (about 80 μg protein) are incubated for 60 min at 22° C. with 0.5 nM [3H]U-69593 in the absence or presence of the test compound in a buffer containing 50 mM Tris-HCl (pH 7.4), 10 mM MgCl2 and 1 mM EDTA. Nonspecific binding is determined in the presence of 10 μM naloxone. Following incubation, the samples are filtered rapidly under vacuum through glass fiber filters ([…], Packard) presoaked with 0.3% PEI and rinsed several times with ice-cold 50 mM Tris-HCl using a 96-sample cell harvester (Unifilter, Packard). The filters are dried then counted for radioactivity in a scintillation counter (Topcount, Packard) using a scintillation cocktail (Microscint 0, Packard). The results are expressed as a percent inhibition of the control radioligand specific binding. The standard reference compound is U-50488, which is tested in each experiment at several concentrations to obtain a competition curve from which its IC50 is calculated.

T3 sequence (P41145 whole entry): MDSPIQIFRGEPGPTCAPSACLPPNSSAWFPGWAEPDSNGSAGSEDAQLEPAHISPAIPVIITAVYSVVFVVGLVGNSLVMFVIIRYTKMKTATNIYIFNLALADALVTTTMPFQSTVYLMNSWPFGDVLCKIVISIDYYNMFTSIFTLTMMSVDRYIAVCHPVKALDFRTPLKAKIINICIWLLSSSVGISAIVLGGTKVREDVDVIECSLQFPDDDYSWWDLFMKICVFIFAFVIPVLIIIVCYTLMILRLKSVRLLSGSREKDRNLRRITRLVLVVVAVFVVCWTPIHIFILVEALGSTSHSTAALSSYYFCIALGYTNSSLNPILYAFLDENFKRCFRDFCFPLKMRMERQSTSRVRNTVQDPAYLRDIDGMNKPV

Consider `O=C(c1c(-c2ccccn2)nn2ccccc12)N1CCC[C@H]1Cn1ccc(-c2ccccc2)n1` [Example 132], for which the results for the half-inhibitory concentration (IC50) in assay [1] and in assay [2] were 4 nM and 16 nM, respectively. For the same molecule, the figures for the inhibition at 1 µM in assay [1], in assay [2] and in assay [3] were 100%, 98% and 35%, respectively. Moreover, the Kb in assay [1] worked out at 1 nM; in assay [2], 3 nM.

With `O=C(c1c(-c2ccccc2)nn2cccnc12)N1CCC[C@H]1Cn1ccc(-c2ccccc2)n1` [Example 133], the values for the IC50 in assay [1] and in assay [2] were 4 nM and 83 nM, respectively. Further, the inhibition at 1 µM in assay [1] stood at 99%; in assay [2], 81%; in assay [3], 44%. The figures for the Kb in assay [1] and in assay [2] were 1 nM and 14 nM, respectively.

As for `O=C(c1nn2c(c1-c1ccccc1)COCC2)N1CCC[C@H]1Cn1ccc(-c2ccccn2)n1` [Example 134], in assay [1], the IC50 came out at 12 nM, the inhibition at 1 µM was 100% and the antagonist equilibrium constant (Kb) was 3 nM. In addition, the inhibition at 1 µM in assay [2] worked out at 44%. In assay [3], the inhibition at 1 µM stood at 0%.

Consider `O=C(c1nn2c(c1-c1ccccc1)OCCC2)N1CCC[C@H]1Cn1ccc(-c2ccccn2)n1` [Example 135], for which, in assay [1], the IC50 was 4 nM, the inhibition at 1 µM was 100% and the antagonist dissociation constant (Kb) was found to be 1 nM. Moreover, in assay [2], the IC50 came to 660 nM, the inhibition at 1 µM amounted to 71% and the Kb was determined as 110 nM. In addition, the inhibition at 1 µM in assay [3] is 22%.

`O=C(c1nn2cccnc2c1-c1ccccc1)N1CCC[C@H]1Cn1ccc(-c2ccccc2)n1` [Example 136]: in assay [1], the IC50 amounted to 9 nM, the inhibition at 1 µM came to 99% and the Kb came out at 1 nM. For the same molecule, in assay [2], the IC50 came out at 3 nM, the inhibition at 1 µM turned out to be 74% and the Kb turned out to be 0.5 nM. In addition, in assay [3], the inhibition at 1 µM came out at 26%.

On to `O=C(c1nn2cccnc2c1-c1ccccc1)N1CCC[C@H]1Cn1ccc(-c2ccccn2)n1` [Example 137], for which, in assay [1], the IC50 was determined as 5 nM, the inhibition at 1 µM turned out to be 99% and the antagonist dissociation constant (Kb) came to 1 nM. In assay [2], the half-maximal inhibitory concentration (IC50) worked out at 490 nM, the inhibition at 1 µM was determined as 52% and the antagonist dissociation constant (Kb) stood at 85 nM. Further, in assay [3], the inhibition at 1 µM stood at 9%.

For `O=C(c1c(-c2ncccn2)nn2ccccc12)N1CCC[C@H]1Cn1ccc(-c2ccccn2)n1` [Example 138], the values for the IC50 in assay [1] and in assay [2] were 9 nM and 490 nM, respectively. Also, the inhibition at 1 µM was found to be 100% in assay [1], 62% in assay [2] and 0% in assay [3]. The Kb in assay [1] amounted to 2 nM; in assay [2], 84 nM.

For the molecule `O=C(c1c(-c2ccccn2)nn2ccccc12)N1CCC[C@H]1Cn1ccc(-c2ccccn2)n1` [Example 139], in assay [1], the IC50 worked out at 8 nM, the inhibition at 1 µM stood at 100% and the Kb came to 2 nM. In assay [2], the IC50 amounted to 63 nM, the inhibition at 1 µM amounted to 82% and the Kb turned out to be 11 nM. In addition, the inhibition at 1 µM in assay [3] was determined as 0%.

Turning to `O=C(c1c(-c2ccccc2)nn2cccnc12)N1CCC[C@H]1Cn1ccc(-c2ccccn2)n1` [Example 140], in assay [1], the IC50 is 4 nM, the inhibition at 1 µM was 100% and the Kb is 1 nM. For the same molecule, in assay [2], the IC50 was 190 nM, the inhibition at 1 µM came out at 59% and the antagonist equilibrium constant (Kb) was 32 nM. In addition, the inhibition at 1 µM in assay [3] is 14%.

On to `O=C(c1nn2c(c1-c1ccccc1)COCC2)N1CCC[C@H]1COc1ccc(C(F)(F)F)cn1` [Example 141], for which, in assay [1], the IC50 was found to be 5 nM, the inhibition at 1 µM was 100% and the Kb turned out to be 1 nM. For the same molecule, the inhibition at 1 µM in assay [2] came to 33%. In addition, in assay [3], the inhibition at 1 µM was found to be 40%.

Turning to `C[C@@]1(COc2ccc(C(F)(F)F)cn2)CCCN1C(=O)c1nn2ccccc2c1-c1ccccc1` [Example 143], the IC50 in assay [1] worked out at 210 nM. Moreover, the inhibition at 1 µM came out at 98% in assay [1], 31% in assay [2] and 3% in assay [3]. Also, the antagonist equilibrium constant (Kb) in assay [1] worked out at 45 nM.

Usually IC50 stands for the concentration that gives 50% inhibition. What is called Kb is the equilibrium dissociation constant of an antagonist, usually derived from a functional assay.
